In patent US20210198256A1, “COMPOUNDS FOR THE DEGRADATION OF BRD9 OR MTH1” (C4 Therapeutics, Inc., priority 2018, published 2021):

Tested on: SMARTCAR-MTH1-wt-HiBiT (Jurkat.7 cells)
Assay: HiBit Lytic Assay (HiBit DC50, MTH1 degraders of Table 2)
Format: cell-based, human
Conditions: Jurkat.7 SMARTCAR-MTH1-wt-HiBiT cells, compound treatment time 4 hr, 11-point half log dose response
Procedure: Example 3. HiBit Lytic Assay
• Compound is made at 10 mM, half log dilution, 11 points. • MDR plates can also be ordered from Frontier with same format. • 1. Barcode a 384LDV plate (384-well Low Dead Volume Microplate, Labcyte LP-0200) (Echo compatible) on the left side. • 2. Transfer 13.6 μL of 10 mM compound into column 1 of LDV plate (Labcyte). • 3. Fill column 2-11 and column 23 of MDR plate with 9.30 μL of DMSO. • 4. Serial dilute 3.16 fold from column 1 to 2 by transferring 4.30 μL from column 1 to column 2, and so on to column 11. *Change tip in every dilution to prevent compound carryover effect! • 5. Seal the plate with Plate Sealer, then store the MDR plate at room temperature for short term storage and in −20° C. for long term storage.
• Cells are treated with 30 nL of each compound at 10 mM, half log dilution, 11 points with final concentration of 1000 nM or 833 nM, half log dilution, 11 points, in duplicates. Final DMSO concentration is 0.1%. • 1. Barcode the plates made on the left side and label the plates with silver marker. • 2. Dispense with the following scheme: • a. 30 nL of compound into corresponding wells in cell plates via Echo550 with “MDR32_HiBiT16_30 nL”. Top concentration will be 1000 nM. • 3. Seal the plate with Plate Sealer.
• Cells are dispensed at density specified in Cell Line Table in 384-well microplate. • 1. Culture cells to between 50-80% of confluence in sterile culture flasks of appropriate size. • 2. For Adherent Cell Lines: • a. Aspirate off growth media in culture flask, and wash off the Phenol Red media with 5 mL of 1×PBS. • b. Add 5 mL of Trypsin to the cells, incubate at 37° C. for 5 minutes. • c. Add 5 mL of growth media to the trypsinzed cells, and resuspend. • 3. Remove 10 μL of cells, and resuspend the cells with 10 μL of Trypan Blue. Insert the solution to counting chamber slide, and count the cells via cell counter. • 4. Adjust the cell concentration to specified plating density, and strain the cells with cell strainer. • 5. Dispense the cells via E1-ClipTip™ Electronic Multichannel Pipettes or Multidrop™ Combi Reagent Dispenser with Standard tube dispensing cassette: • a. Prime the cassette with 10-20 mL of ddH2O. • b. Prime the cassette with 10-20 mL of cells. • c. Dispense the cells at low speed for 30 μL/well in Corning® 384 Well Low Flange Black Flat Bottom Polystyrene TC-Treated Microplate. • d. Wash the cassette with 10-20 mL of ddH2O, follow by 10-20 mL of 70% EtOH, then again with 10-20 mL of ddH2O. • 6. Incubate the plates at 37° C.×compound treatment time.
• 1. If not already, bring Nano-Glo® HiBiT Lytic Buffer to room temperature. • 2. Determine the amount of reagent needed. A volume of reagent equal to the volume of media in the well should be added (i.e. 30 μL of cells will need 30 μL of HiBiT Lytic reagent). • 3. Into a given volume of buffer, dilute the substrate 50-fold and the LgBiT protein 100-fold. For example, to make 10 ml of reagent, add the following: • 10 ml Nano-Glo® HiBiT Lytic Buffer • 200 μl Nano-Glo® HiBiT Lytic Substrate • 100 μl LgBiT Protein • The reagent should be reconstituted immediately before use. However, once reconstituted, it should take about 4 hours for the activity to decrease 10%. • 4. Cool down the cell plate to room temperature for 10-15 minutes without lid. • 5. Dispense the HiBiT Lytic Reagent via E1-ClipTip™ Electronic Multichannel Pipettes or Multidrop™ Combi Reagent Dispenser with Standard tube dispensing cassette: • a. Prime the cassette with 10-20 mL of ddH2O. • b. Prime the cassette with 10-20 mL of CTG 2.0. • c. Dispense the HiBiT Lytic Reagent at medium speed for 30 μL/well in cell plate to column 1-23 (column 24 will be used as plate background). • d. Wash the cassette with 10-20 mL of ddH2O, follow by 10-20 mL of 70% EtOH, then again with 10-20 mL of ddH2O. • 6. Incubate the cell plate at room temperature for 10 minutes without lid. • 7. […]

Structure (SMILES) | DC50
CNC(=O)c1cnc2cc(OC)c(-c3ccc(C(=O)NCCCCNC(=O)C(C)Nc4cccc5c4C(=O)N(C4CCC(=O)NC4=O)C5=O)nc3)cc2c1Nc1ccccc1 (stereo in doubt) [Compound 384, 6-(6-((4-((2S)-2-((2-(2,6-dioxopiperidin-3-yl)-1,3-dioxoisoindolin-4-yl)amino)propanamido)butyl)carbamoyl)pyridin-3-yl)-7-methoxy-N-methyl-4-(phenylamino)quinoline-3-carboxamide] | < 100 nM
NC(=O)c1cnc2ccc(-c3ccc(C(=O)NCCCCNC(=O)COc4cccc5c4C(=O)N(C4CCC(=O)NC4=O)C5=O)cc3)cc2c1Nc1ccccc1 (centres unmarked) [Compound 300, 4-anilino-6-[4-[4-[[2-[2-(2,6-dioxo-3-piperidyl)-1,3-dioxo-isoindolin-4-yl]oxyacetyl]amino]butylcarbamoyl]phenyl]quinoline-3-carboxamide] | < 100 nM
CN(CC(=O)NCCCCNC(=O)c1ccc(-c2ccc3ncc(C(N)=O)c(Nc4ccccc4)c3c2)cc1)c1cccc2c1C(=O)N(C1CCC(=O)NC1=O)C2=O (centres unmarked) [Compound 301, 4-anilino-6-[4-[4-[[2-[[2-(2,6-dioxo-3-piperidyl)-1,3-dioxo-isoindolin-4-yl]-methyl-amino]acetyl]amino]butylcarbamoyl]phenyl]quinoline-3-carboxamide] | < 100 nM
NC(=O)c1cnc2ccc(-c3ccc(C(=O)NCCCCNC(=O)CNc4cccc5c4C(=O)N(C4CCC(=O)NC4=O)C5=O)cc3)cc2c1Nc1ccccc1 (centres unmarked) [Compound 302, 6-(4-((4-(2-((2-(2,6-dioxopiperidin-3-yl)-1,3-dioxoisoindolin-4 yl)amino)acetamido)butyl)carbamoyl)phenyl)-4-(phenylamino)quinoline-3-carboxamide] | < 100 nM
NC(=O)c1cnc2ccc(-c3ccc(C(=O)NCCCCNC(=O)CNc4cccc5c4CN(C4CCC(=O)NC4=O)C5=O)cc3)cc2c1Nc1ccccc1 (centres unmarked) [Compound 303, 4-anilino-6-[4-[4-[[2-[[2-(2,6-dioxo-3-piperidyl)-1-oxo-isoindolin-4-yl]amino]acetyl]amino]butylcarbamoyl]phenyl]quinoline-3-carboxamide] | < 100 nM
NC(=O)c1cnc2ccc(-c3ccc(C(=O)NCCCNC(=O)COc4cccc5c4C(=O)N(C4CCC(=O)NC4=O)C5=O)cc3)cc2c1Nc1ccccc1 (centres unmarked) [Compound 306, 6-(4-((3-(2-((2-(2,6-dioxopiperidin-3-yl)-1,3-dioxoisoindolin-4-yl)oxy)acetamido)propyl)carbamoyl)phenyl)-4-(phenylamino)quinoline-3-carboxamide] | < 100 nM
NC(=O)c1cnc2ccc(-c3ccc(C(=O)NCCCNC(=O)CNc4cccc5c4C(=O)N(C4CCC(=O)NC4=O)C5=O)cc3)cc2c1Nc1ccccc1 (centres unmarked) [Compound 307, 6-(4-((3-(2-((2-(2,6-dioxopiperidin-3-yl)-1,3-dioxoisoindolin-4-yl)amino)acetamido)propyl)carbamoyl)phenyl)-4-(phenylamino)quinoline-3-carboxamide] | < 100 nM
NC(=O)c1cnc2ccc(-c3ccc(C(=O)N[C@H]4CC[C@@H](NC(=O)CNC(=O)COc5cccc6c5C(=O)N(C5CCC(=O)NC5=O)C6=O)CC4)cc3)cc2c1Nc1ccccc1 (some centres unmarked) [Compound 308, 6-(4-(((1s,4s)-4-(2-(2-((2-(2,6-dioxopiperidin-3-yl)-1,3-dioxoisoindolin-4-yl)oxy)acetamido)acetamido)cyclohexyl)carbamoyl)phenyl)-4-(phenylamino)quinoline-3-carboxamide] | < 100 nM
NC(=O)c1cnc2ccccc2c1Nc1ccc(-c2ccc(C(=O)NCCCCNC(=O)COc3cccc4c3C(=O)N(C3CCC(=O)NC3=O)C4=O)cc2)cc1 (centres unmarked) [Compound 309, 4-[4-[4-[4-[[2-[2-(2,6-dioxo-3-piperidyl)-1,3-dioxo-isoindolin-4-yl]oxyacetyl]amino]butylcarbamoyl]phenyl]anilino]quinoline-3-carboxamide] | < 100 nM
NC(=O)c1cnc2ccc(N3CCN(C(=O)CCCCCNC(=O)COc4cccc5c4C(=O)N(C4CCC(=O)NC4=O)C5=O)CC3)cc2c1Nc1ccccc1 (centres unmarked) [Compound 310, 6-(4-(6-(2-((2-(2,6-dioxopiperidin-3-yl)-1,3-dioxoisoindolin-4-yl)oxy)acetamido)hexanoyl)piperazin-1-yl)-4-(phenylamino)quinoline-3-carboxamide] | < 1000 nM
CN(CC(=O)NCCOCCNC(=O)c1ccc(-c2ccc3ncc(C(N)=O)c(Nc4ccccc4)c3c2)cc1)c1cccc2c1C(=O)N(C1CCC(=O)NC1=O)C2=O (centres unmarked) [Compound 311, 4-anilino-6-[4-[2-[2-[[2-[[2-(2,6-dioxo-3-piperidyl)-1,3-dioxo-isoindolin-4-yl]-methyl-amino]acetyl]amino]ethoxy]ethylcarbamoyl]phenyl]quinoline-3-carboxamide] | < 1000 nM
CN(CC(=O)NCCCCCC(=O)N1CCC(c2ccc3ncc(C(N)=O)c(Nc4ccccc4)c3c2)CC1)c1cccc2c1C(=O)N(C1CCC(=O)NC1=O)C2=O (centres unmarked) [Compound 312, 4-anilino-6-[1-[6-[[2-[[2-(2,6-dioxo-3-piperidyl)-1,3-dioxo-isoindolin-4-yl]-methyl-amino]acetyl]amino]hexanoyl]-4-piperidyl]quinoline-3-carboxamide] | < 1000 nM
CNC(=O)c1cnc2ccc(-c3ccc(C(=O)NCCCCNC(=O)COc4cccc5c4C(=O)N(C4CCC(=O)NC4=O)C5=O)cc3)cc2c1Nc1ccccc1 (centres unmarked) [Compound 340, 4-anilino-6-[4-[4-[[2-[2-(2,6-dioxo-3-piperidyl)-1,3-dioxo-isoindolin-4-yl]oxyacetyl]amino]butylcarbamoyl]phenyl]-N-methyl-quinoline-3-carboxamide] | < 100 nM
CNC(=O)c1cnc2ccc(-c3ccc(C(=O)NCCCC(=O)N4CCN(c5cccc6c5C(=O)N(C5CCC(=O)NC5=O)C6=O)CC4)cc3)cc2c1Nc1ccccc1 (centres unmarked) [Compound 343, 4-anilino-6-[4-[[4-[4-[2-(2,6-dioxo-3-piperidyl)-1,3-dioxo-isoindolin-4-yl]piperazin-1-yl]-4-oxo-butyl]carbamoyl]phenyl]-N-methyl-quinoline-3-carboxamide] | < 100 nM
CNC(=O)c1cnc2cc(OC)c(-c3ccc(C(=O)NCCCCNC(=O)CNc4cccc5c4C(=O)N(C4CCC(=O)NC4=O)C5=O)cc3)cc2c1Nc1ccccc1 (centres unmarked) [Compound 344, 6-(4-((4-(2-((2-(2,6-dioxopiperidin-3-yl)-1,3-dioxoisoindolin-4-yl)amino)acetamido)butyl)carbamoyl)phenyl)-7-methoxy-N-methyl-4-(phenylamino)quinoline-3-carboxamide] | < 100 nM
CNC(=O)c1cnc2cc(OC)c(-c3ccc(C(=O)NCCCCNC(=O)CN(C)c4cccc5c4C(=O)N(C4CCC(=O)NC4=O)C5=O)cc3)cc2c1Nc1ccccc1 (centres unmarked) [Compound 345, 6-(4-((4-(2-((2-(2,6-dioxopiperidin-3-yl)-1,3-dioxoisoindolin-4-yl)(methyl)amino)acetamido)butyl)carbamoyl)phenyl)-7-methoxy-N-methyl-4-(phenylamino)quinoline-3-carboxamide] | < 100 nM
CNC(=O)c1cnc2ccc(-c3ccc(C(=O)NCCCCNC(=O)C(C)Nc4cccc5c4C(=O)N(C4CCC(=O)NC4=O)C5=O)cc3)cc2c1Nc1ccccc1 (centres unmarked) [Compound 346, 4-anilino-6-[4-[4-[2-[[2-(2,6-dioxo-3-piperidyl)-1,3-dioxo-isoindolin-4-yl]amino]propanoylamino]butylcarbamoyl]phenyl]-N-methyl-quinoline-3-carboxamide] | < 100 nM
